Data: patent US9358281B2, “Methods, agents and peptides for inducing an innate immune response in HIV vaccination” (New York University, priority 2009, dated 2016)

Tested on: monocyte-derived dendritic cells (MDDC)
Format: cell-based, human
Settings: added during the first 24 hours

| SMILES | effect on transduction efficiency |
| --- | --- |
| Cc1cn([C@H]2C[C@H](N=[N+]=[N-])[C@@H](CO)O2)c(=O)[nH]c1=O [AZT, Zidovudine] | inhibited transduction efficiency |
| Cc1nnc(C(=O)NC(C)(C)c2nc(C(=O)NCc3ccc(F)cc3)c(O)c(=O)n2C)o1 [RAL, Raltegravir] | inhibited transduction efficiency |
